Assay results published in ChEMBL document CHEMBL5233253, “β-Lactams as promising anticancer agents: Molecular hybrids, structure activity relationships and potential targets” (Eur J Med Chem, 2020).
pEC50, pIC50: −log10 of the molar value. Values belong to the compound of their own block, whether it stands above or below them.

Experiments:
Heat shock protein HSP90 = Heat shock protein HSP90 (Homo sapiens, UniProt P07900+P08238); assay: Inhibition of HSP90 (unknown origin); assay type: protein assay
Tubulin = assay: Inhibition of tubulin (unknown origin) polymerization incubated for 5 mins by spectrophotometer analysis; assay type: protein-complex assay, Homo sapiens
A549 = assay: Cytotoxicity against human A549 cells assessed as inhibition of cell growth by MTT assay; assay type: functional, cell-based
MCF7 = assay: Cytotoxicity against human MCF7 cells assessed as inhibition of cell growth by MTT assay; assay type: functional, cell-based
HEK293 = assay: Antiproliferative activity against human HEK293 cells assessed as inhibition of cell growth measured after 48 hrs by MTT assay; assay type: functional, cell-based; details: HEK293, 48 h
[1] = Inhibition of Klebsiella pneumoniae beta Metallo-beta-lactamase IMP-28
L1210 = assay: Cytotoxicity against mouse L1210 cells assessed as reduction in cell viability; assay type: functional, cell-based
CCRF-CEM = assay: Cytotoxicity against human CEM cells assessed reduction in cell viability; assay type: functional, cell-based
HT-1080 = assay: Cytotoxicity against human HT-1080 cells assessed reduction in cell viability; assay type: functional, cell-based
[2] = Anti-keratosis activity in vitamin-A-deficient hamster trachea in presence of beta-lactamase; assay type: functional, tissue-based, Cricetulus griseus

IC50 (Heat shock protein HSP90): 5.6 µM
Compound: CCc1cc([C@@H]2CC(=O)N2c2ccc3c(c2)OCCO3)c(O)cc1O

pIC50 (Tubulin): 5.65
Compound: COc1cc(N2C(=O)[C@H](c3cccs3)[C@H]2c2cccc(N=[N+]=[N-])c2)cc(OC)c1OC

Compound: CC(O)C1C(=O)NC1OC(=O)/C=C/c1ccc(N)cc1 (centres undefined)
pIC50 (A549): 5.80
pIC50 (MCF7): 5.80

Compound: C[C@H](CCC(=O)OCc1cn([C@@H]2C(=O)N(CCN3C(=O)[C@@H](n4cc(COC(=O)CC[C@@H](C)[C@H]5CC[C@H]6[C@@H]7[C@H](O)C[C@@H]8C[C@H](O)CC[C@]8(C)[C@H]7C[C@H](O)[C@]56C)nn4)[C@H]3c3ccccc3)[C@@H]2c2ccccc2)nn1)[C@H]1CC[C@H]2[C@@H]3CC[C@@H]4C[C@H](O)CC[C@]4(C)[C@H]3C[C@H](O)[C@]12C
pIC50 (HEK293): 5.00

pIC50 [1]: 6.47
Compound: O=C(OCc1ccccc1)[C@H]1[C@@H](Cc2ccc(O)cc2)C(=O)N1C(=O)c1ccccc1

Compound: Cc1cn(CCCN2C(=O)C(OCc3ccccc3)C2c2ccc(Br)cc2)c(=O)n(CCCN2C(=O)C(OCc3ccccc3)C2c2ccc(Br)cc2)c1=O (centres undefined)
pIC50 (L1210): 5.39
pIC50 (CCRF-CEM): 5.47

Compound: CC(O)C1C(=O)NC1OC(=O)/C=C/c1ccc(Cl)cc1 (centres undefined)
pIC50 (A549): 5.80
pIC50 (MCF7): 5.80

pIC50 [1]: 6.47
Compound: O=C(O)c1ccc(COC(=O)[C@H]2[C@@H](Cc3ccccc3)C(=O)N2C(=O)Cc2cccc(C(=O)OCc3ccccc3)c2)cc1

pIC50 [1]: 6.47
Compound: O=C(OCc1ccccc1)c1cccc(CC(=O)N2C(=O)[C@H](Cc3ccccc3)[C@@H]2C(=O)OCc2ccccc2)c1

Compound: COc1ccc(/C=C/C(=O)OC2NC(=O)C2C(C)O)cc1 (centres undefined)
pIC50 (A549): 5.80
pIC50 (MCF7): 5.80

Compound: C[C@H](CCC(=O)NCc1cn([C@@H]2C(=O)N(CCN3C(=O)[C@@H](n4cc(CNC(=O)CC[C@@H](C)[C@H]5CC[C@H]6[C@@H]7CC[C@@H]8C[C@H](O)CC[C@]8(C)[C@H]7C[C@H](O)[C@]56C)nn4)[C@H]3c3ccccc3)[C@@H]2c2ccccc2)nn1)[C@H]1CC[C@H]2[C@@H]3CC[C@@H]4C[C@H](O)CC[C@]4(C)[C@H]3C[C@H](O)[C@]12C
pIC50 (HEK293): 3.30

Compound: C=C(C)[C@H](C(=O)OC(c1ccccc1)c1ccccc1)N1C(=O)/C(=C/C(=O)OC(C)(C)C)[C@H]1SSc1nc2ccccc2s1
pIC50 (HT-1080): 6.40

pIC50 [1]: 6.47
Compound: O=C(OCc1ccccc1)c1cccc(CC(=O)N2C(=O)[C@H](Cc3ccc(O)cc3)[C@@H]2C(=O)OCc2ccccc2)c1

Compound: CC(O)C1C(=O)NC1OC(=O)/C=C/c1ccccc1 (centres undefined)
pIC50 (A549): 5.80
pIC50 (MCF7): 5.80

Compound: CC(O)C1C(=O)NC1OC(=O)/C=C/c1ccc(Br)cc1 (centres undefined)
pIC50 (A549): 5.80
pIC50 (MCF7): 5.80

pEC50 [2]: 10.41
Compound: CC1=C(/C=C/C(C)=C/C=C/C(C)=C/C(=O)OCC2=C(C(=O)O)N3C(=O)[C@@H](NC(=O)COc4ccccc4)[C@H]3[S+]([O-])C2)C(C)(C)CCC1 (some centres undefined)

Compound: C[C@H](CCC(=O)NCc1cn([C@@H]2C(=O)N(CCN3C(=O)[C@@H](n4cc(CNC(=O)CC[C@@H](C)[C@H]5CC[C@H]6[C@@H]7[C@H](O)C[C@@H]8C[C@H](O)CC[C@]8(C)[C@H]7C[C@H](O)[C@]56C)nn4)[C@H]3c3ccccc3)[C@@H]2c2ccccc2)nn1)[C@H]1CC[C@H]2[C@@H]3CC[C@@H]4C[C@H](O)CC[C@]4(C)[C@H]3C[C@H](O)[C@]12C
pIC50 (HEK293): 4.00

Compound: C[C@H](CCC(=O)OCc1cn([C@@H]2C(=O)N(CCN3C(=O)[C@@H](n4cc(COC(=O)CC[C@@H](C)[C@H]5CC[C@H]6[C@@H]7CC[C@@H]8C[C@H](O)CC[C@]8(C)[C@H]7C[C@H](O)[C@]56C)nn4)[C@H]3c3ccccc3)[C@@H]2c2ccccc2)nn1)[C@H]1CC[C@H]2[C@@H]3CC[C@@H]4C[C@H](O)CC[C@]4(C)[C@H]3C[C@H](O)[C@]12C
pIC50 (HEK293): < 3.00
